“Also recorded” adds a separate entry of the source.
B1: N: Noggin, inhibition of the BMP pathway (protein, UniProt Q13253 28-232, looked up)
Noggin: QHYLHIRPAPSDNLPLVDLIEHPDPIFDPKEKDLNETLLRSLLGGHYDPGFMATSPPEDRPGGGGGAAGGAEDLAELDQLLRQRPSGAMPSEIKGLEFSEGLAQGKKQRLSKKLRRKLQMWLWSQTFCPVLYAWNDLGSRFWPRYVKVGSCFSKRSCSVPEGMVCKPSKSVHLTVLRWRCQRRGGQRCGWIPIQYPIISECKCSC

Legend:
Type in all cases: cell-based, human
hPSC-derived hepatocytes [1] = test: Maturation of hPSC-derived hepatocytes: AFP expression by flow cytometry and qRT-PCR; details: added days 38 to 56, aggregates, 40 ng/ml dexamethasone
Procedure: For these studies, T3 was added to the cultures during the maturation step, from days 38 to 56. During this stage, the cells are cultured as aggregate in the presence of 40 ng/ml dexamethasone, as previously described.

CFTR expression = test: Induction of CFTR expression in hepatoblasts differentiated to cholangiocytes in monolayer (co-culture with OP9-Jag1); details: hepatoblasts co-cultured with OP9-Jag1, monolayer, 6 days
Procedure: OP9 cells were maintained as described previously. 30 Gray irradiated OP9 cells were plated on 2.5% Matrigel coated wells (12 well plates) at a concentration of 200,000 cells per well in alpha-modified minimum essential media (a-MEM) supplemented with glutamine (2 mM) and 20% fetal bovine serum. To induce the cholangiocytes differentiation, day 27 hepatoblasts were dissociated using collagenase type I enzyme and then plated onto the irradiated OP9 cells. The plated cells were cultured in H21 DMEM/Ham's F12 (3:1) media supplemented with 0.1% BSA, 1% vol/vol B27 supplement, ascorbic acid, glutamine, MTG, HGF (20 ng/ml), and epidermal growth factor (EGF, 50 ng/ml) for 4 days. […] To promote the maturation of cholangiocytes that express primary cilia and 4D9, the cells were cultured with DMEM/F12 medium with 0.1% BSA, 1% vol/vol B27 supplement, ascorbic acid, glutamine, MTG, Noggin (50 ng/ml), ROCK inhibitor Y-27632 (5 μM) and Forskolin (FSK, 5 μM) for 12 days. The medium for all steps of cholangiocytes differentiation were changed every two days. The cells were maintained in an ambient O2 incubator.
It has previously been reported that it is possible to generate cholangiocytes that express a number of markers that are indicative of mature cells including the cystic fibrosis transmembrane conductance regulator (CFTR) gene, in which mutations cause cystic fibrosis. The development of mature cholangiocytes was dependent on growth of the cells as cysts in 3D semi-solid cultures consisting of Matrigel and collagen. While this approach yielded relatively mature cholangiocytes, the culture system was not amenable to cell expansion or high throughput screening (e.g., for drugs against cystic fibrosis and other biliary diseases). To improve the differentiation efficiency in monolayer cultures, a panel of cytokines and small molecules that are known to play a role in bile duct development were screened to identify those that would promote the upregulation of CFTR expression as an indication of maturation. Since Notch signaling is required for the production of cholangiocytes, hepatoblasts were cultured on either OP9-Jagl cells or Matrigel for 6 days as previously described. […] To further investigate the role of RA signaling, the effects of specific RA receptor agonists as well as a pan antagonist also were tested.

hPSC-derived hepatocytes [2] = test: Zonation of hPSC-derived hepatocytes by Wnt manipulation (gene expression); details: added days 38 to 56 with T3
Procedure: Day 27 hepatoblasts were cultured in DMEM/F12 (50:50) with 0.2% BSA, 1% vol/vol ITS-X, ascorbic acid, glutamine, MTG, Dex (40 ng/ml), and OSM (5 ng/ml) for 6 days in monolayer. Day 33 hepatoblasts were dissociated using collagenase type 1 enzyme to make a small cluster of hepatoblasts. The dissociated small clusters were maintained in a low cluster culture dish and cultured in DMEM/F12 (50:50) medium supplemented with 0.2% BSA, 1% vol/vol ITS-X, ascorbic acid, 1% vol/vol chemically defined lipid mix medium (Thermo Fisher Scientific), 0.5% vol/vol B27, glutamine, MTG, Dex (40 ng/ml), and CHIR99021 (1 μM) for 6 days to promote the maturation in 3D aggregates. […]

[3] = system: hPSC-derived cholangiocytes; test: Flow cytometric screen for DHC5-4D9 reactive mature cholangiocytes in monolayer; details: added to cultures for 6 days, flow cytometry
Procedure: 30 Gray irradiated OP9 cells were plated on 2.5% Matrigel coated wells (12 well plates) at a concentration of 200,000 cells per well in alpha-modified minimum essential media (a-MEM) supplemented with glutamine (2 mM) and 20% fetal bovine serum. To induce the cholangiocytes differentiation, day 27 hepatoblasts were dissociated using collagenase type I enzyme and then plated onto the irradiated OP9 cells. The plated cells were cultured in H21 DMEM/Ham's F12 (3:1) media supplemented with 0.1% BSA, 1% vol/vol B27 supplement, ascorbic acid, glutamine, MTG, HGF (20 ng/ml), and epidermal growth factor (EGF, 50 ng/ml) for 4 days. […] To promote the maturation of cholangiocytes that express primary cilia and 4D9, the cells were cultured with DMEM/F12 medium with 0.1% BSA, 1% vol/vol B27 supplement, ascorbic acid, glutamine, MTG, Noggin (50 ng/ml), ROCK inhibitor Y-27632 (5 μM) and Forskolin (FSK, 5 μM) for 12 days. […]
To identify pathways that promote further maturation of the hPSC-derived cholangiocytes, a screening approach was used based on flow cytometric identification of cells that express the epitope recognized by the antibody DHCS-4D9, which stains mature bile ductal cells (cholangiocytes) in the adult liver. […] Following this maturation step, the cells were harvested and analyzed by flow cytometry for reactivity with DHC5-4D9.

Molecule | CFTR expression (CFTR expression) | other results
N[C@@H](Cc1cc(I)c(Oc2ccc(O)c(I)c2)c(I)c1)C(=O)O [T3, Triiodothyronine] | – | levels of AFP expression (hPSC-derived hepatocytes [1]): dramatic decrease in the levels of AFP expression; also recorded: significantly lower than the levels observed in cells treated with cAMP
AM580 | induced CFTR expression | –
CC1(C)CC=C(C#Cc2ccccc2)c2cc(/C=C/c3ccc(C(=O)O)cc3)ccc21 [BMS493] | inhibited the induction of CFTR expression | –
Oc1nc(-c2ccc(C(F)(F)F)cc2)nc2c1CSCC2 [XAV] | – | zonal gene expression of hepatocytes (hPSC-derived hepatocytes [2]): expressed genes associated with Zone 1 hepatocytes
O=C(O)c1ccc2cc(-c3ccc(O)c(C45CC6CC(CC(C6)C4)C5)c3)ccc2c1 [CD437] | induced CFTR expression | –
CCCCCCCCc1ccc(-c2ccc(C(=O)O)cc2)cc1 [AC55649] | induced CFTR expression | –
Cc1c[nH]c(-c2cnc(NCCNc3ccc(C#N)cn3)nc2-c2ccc(Cl)cc2Cl)n1 [CHIR, 6-[[2-[[4-(2,4-Dichlorophenyl)-5-(5-methyl-1H-imidazol-2-yl)-2-pyrimidinyl]amino]ethyl]amino]-3-pyridinecarbonitrile] | – | zonal gene expression of hepatocytes (hPSC-derived hepatocytes [2]): expressed genes associated with Zone 3 hepatocytes
B1 | – | development of DHC5-4D9 cells [3]: promoted the development of DHC5-4D9 cells
